According to patent US11278595B2, “Peptides comprising non-natural amino acids and methods of making and using the same” (Longevity Biotech, Inc., priority 2013, dated 2022):
Numbered stars: 1 amine (or outer) side, 2 acyl side, 3 side chain; on linkers, the order of the positions; unused ones are H or OH. Square brackets hold non-standard residues; d marks the D form. Peptide text beside a SMILES is read from it. ξ: configuration not given here. ξ(4-Aminopyrrolidine-3-CO) = O=C(C1CNCC1N[*:1])[*:2]; X3 = O=C(C1CCCC1N[*:1])[*:2]; β3hK = NCCCC[C@H](N)CC(=O)O; βAla = NCCC(=O)O

Legend:
[1] = system: anti-CD3 stimulated naïve CD4+CD25− T cells; assay: Inhibition assay of suppressive function of Treg from treated donor mice; type: cell-based; details: compared to PBS Treg populations; 1:1 Treg to responder ratio; donors injected daily/5 days/i.p.
Description: Immediately following the final dose, mice were sacrificed, and single-cell suspensions were prepared from inguinal lymph nodes and spleens. CD4+ T cell populations from spleens and lymph nodes were enriched by negative selection with CD4-enrichment columns (R&D Systems, Minneapolis, Minn.), followed by CD25-PE positive selection with AutoMACS (Miltenyi Biotec, Auburn, Calif.). As determined by flow cytometric analysis, populations of Tregs and Teffs were consistently […] using this method (12). T cells were cultured in complete RPMI 1640 (RPMI 1640 [Invitrogen, Carlsbad, Calif.] supplemented with 10% FBS, 2 mM L-gluta-mine, 25 mM HEPES, 1 mM sodium pyruvate, […] nonessential amino acids, […] 2-ME, 100 U/ml penicillin, and […] streptomycin [Mediatech, Manassas, Va.]) in the presence of anti-CD3 (145-2C11; BD Pharmingen, San Diego, Calif.), 4YSyn, or N-4YSyn. […]
To assess whether VIP, LBT-V101 (SEQ ID NO: 22), LBT-V218 (SEQ ID NO: 18) and PBS treated splenocytes (SPC) suppress effector T cell proliferative responses, we evaluated SPC co-cultures from VIP-treated donors for their proliferative capacity in the presence of either anti-CD3. […] To test this hypothesis, we evaluated CD4+CD25+CD62Llow Treg isolated from naïve and VIP-treated mice for their capacity to inhibit CD3-mediated proliferation of CD4+CD25− naïve T cells. […]

[2] = system: dopaminergic neurons (TH+/Nissl+) in the SN; assay: Parkinson's disease (MPTP) model, adoptive transfer of splenocytes from drug-treated donors; type: in vivo; details: MPTP mice; donors 15 ug/day/5 days; FIG. 5
Description: Parkinson's Disease (PD) Model (not prophetic): Male C57/BL6 mice, 8-12 w old, housed in the IACUC approved housing were administered an analog described herein as well as a pharmaceutically acceptable carrier for five days at a dose between (0.1 nM and 100 nM). Thereafter, SPC and Tregs from the mice are harvested and then transferred to another set of MPTP intoxicated mice using the following protocol.
Immediately following the final dose, mice were sacrificed, and single-cell suspensions were prepared from inguinal lymph nodes and spleens. […] As determined by flow cytometric analysis, populations of Tregs and Teffs were consistently […] using this method (12). […]
Mice were postmortem transcardially perfused with PBS, followed by 4% para-formaldehyde (Sigma-Aldrich). […] Fluorojade C (FJ-C) staining (Millipore, Billerica, Mass.) was performed on adjacent sections, according to the manufacturer's protocol, to assess de-generating neurons and was quantified using ImageJ. Overall, dopaminergic neuron survival was assessed 7 d following MPTP intoxication and resolution of cell death processes with polyclonal Abs to mouse tyrosine hydroxylase (TH; 1:1000; EMD Chemicals/Calbiochem, San Diego, Calif.) and were counterstained for Nissl substance by thionin staining. […] Quantitation of striatal TH (1:500; EMD Chemicals/Calbiochem, Gibbstown, N.J.) was performed by densitometric analysis. […]

protease = assay: In vitro protease stability assay; type: in vitro ADME; details: FIG. 1; compared to Ro 25-1553 (one lactam bridge)
Description: In Vitro Stability Assay: Stock solutions of the both the naturally occurring peptides as well as peptide analogs are prepared at a concentration of 250 μM (based on UV absorbance) in a 2% DMSO solution of appropriate buffering conditions. Standard solution of proteinase K in addition to other common animal proteases (i.e. Cathepsins, Trypsins, dipeptidyl peptidase IV and chymotrypsin) were prepared at the following concentrations in appropriate buffers separately: Protease K: 250 μg/ml, Chymotrypsin 25 μg/mL and DPP-IV 40 units/ml. For a Protease K assay, the following recipe was followed: 1 μL enzyme was added to 5 μL peptide analog in 44 μL PBS. […] 50 μL of the resulting quenched reaction are then injected onto an analytical reverse phase HPLC, and the amount of starting peptide present quantified by integration of the appropriate chromatogram peak via absorbance at either 220 or 280 nm. […] Half-lives are determined by fitting time dependent peptide concentration to an exponential decay using GraphPad Prism. Samples for some time points will be analyzed by mass spectrometery, and the products observed are used to identify amide bonds cleaved in the course of the reaction. The relative stability enhancement is determined through the comparison of the various analogs with its naturally occurring peptide counterpart. […]

HSDAVFTDNYTRLRKQMAVKKYLNSILN [VIP]
suppressive capacity of Treg on T cell proliferation [1]: enhanced suppressive capacity | neuroprotection after adoptive transfer of splenocytes from drug-treated donors [2]: neuroprotective

CC(=O)N[C@@H](Cc1c[nH]cn1)C(=O)NC1CCCC1C(=O)N[C@@H](CC(=O)O)C(=O)N[C@@H](C)C(=O)NC1CCCC1C(=O)N[C@@H](Cc1ccccc1)C(=O)N[C@H](C(=O)N[C@@H](CCC(=O)O)C(=O)N[C@@H](CC(N)=O)C(=O)N[C@@H](Cc1ccc(O)cc1)C(=O)N[C@H](C(=O)N[C@@H](CCCCN)C(=O)N[C@@H](CC(C)C)C(=O)N[C@@H](CCCNC(=N)N)C(=O)N[C@@H](CCCCN)C(=O)N[C@@H](CCC(N)=O)C(=O)N[C@@H](CC(C)C)C(=O)N[C@@H](C)C(=O)N[C@@H](C)C(=O)NC1CNCC1C(=O)N[C@@H](CCCCN)C(=O)N[C@@H](Cc1ccc(O)cc1)C(=O)NC1CCCC1C(=O)N[C@@H](CC(N)=O)C(=O)N[C@@H](CC(=O)O)C(=O)N[C@@H](CC(C)C)C(=O)N[C@@H](CCCCN)CC(=O)N[C@@H](CCCCN)C(=O)NCC(=O)NCCC(=O)N[C@H](C(N)=O)[C@@H](C)O)[C@@H](C)O)[C@@H](C)O (stereo partly drawn) [LBT-V208, Ac-HxDAxFTENYTKLRKQLAAzKYxNDLkKGgT] (Ac-H[X3]DA[X3]FTENYTKLRKQLAA[ξ(4-Aminopyrrolidine-3-CO)]KY[X3]NDL[β3hK]KG[βAla]T-NH2)
in-vitro protease stability (protease): stability is greater
